Test results from ChEMBL document CHEMBL1201862, “PubChem BioAssay data set” (2004).
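Cells were grown in 96-well plates and exposed to each compound for 48 hours at five concentrations; endpoints were interpolated linearly between bracketing concentrations, or set to the highest concentration if not reached. Abbreviation: GI50, concentration required for 50% inhibition of growth.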 Calls of active or inactive are those of the source. Rule as the data show it: active = GI50 up to about 1.1 µM and inactive = higher.

Columns and labels:
Experiment in all cases: NCI anticancer screen, dose series, 48 h
[1] = test system: A549
[2] = test system: KM12
[3] = test system: SF-268
[4] = test system: OVCAR-3
[5] = test system: MDA-N
[6] = test system: IGROV-1
[7] = test system: Hs-578T
[8] = test system: T47D
[9] = test system: SF-295
[10] = test system: LOX IMVI
[11] = test system: OVCAR-4
[12] = test system: DU-145
[13] = test system: SR
[14] = test system: M14
[15] = test system: SN12C
[16] = test system: HOP-62
[17] = test system: PC-3
[18] = test system: 786-0
[19] = test system: EKVX

SMILES	GI50 [1]	GI50 [2]	GI50 [3]	GI50 [4]	GI50 [5]	GI50 [6]	GI50 [7]	GI50 [8]	GI50 [9]	GI50 [10]	GI50 [11]	GI50 [12]	GI50 [13]	GI50 [14]	GI50 [15]	GI50 [16]	GI50 [17]	GI50 [18]	GI50 [19]
COc1cccc([C@H]2CC(=O)c3cc4c(cc3N2)OCO4)c1	0.296 µM (active)	0.317 µM (active)	0.646 µM (active)	0.598 µM (active)	0.0789 µM (active)	0.622 µM (active)	0.216 µM (active)	> 100 µM (inactive)	0.296 µM (active)	0.714 µM (active)	20.6 µM (inactive)	0.397 µM (active)	0.318 µM (active)	0.237 µM (active)	0.394 µM (active)	0.568 µM (active)	0.275 µM (active)	0.418 µM (active)	
O=C1OC(c2ccccc2)N(C(=O)c2ccccc2)C1Cc1ccc(OCc2ccccc2)cc1 (configuration not stated)	80.2 µM (inactive)		10.1 µM (inactive)		> 100 µM (inactive)	> 100 µM (inactive)	35.6 µM (inactive)	> 100 µM (inactive)		8.11 µM (inactive)		> 100 µM (inactive)	> 100 µM (inactive)	> 100 µM (inactive)	> 100 µM (inactive)	9.42 µM (inactive)	34.8 µM (inactive)	33.1 µM (inactive)	9.57 µM (inactive)
CC1=NNC(=O)C1C(CC(=O)c1c[nH]c2ccccc12)C(=O)O (configuration not stated)	> 100 µM (inactive)	30.1 µM (inactive)	> 100 µM (inactive)	> 100 µM (inactive)	> 100 µM (inactive)	15 µM (inactive)	> 100 µM (inactive)	76 µM (inactive)	> 100 µM (inactive)	97.3 µM (inactive)		> 100 µM (inactive)		> 100 µM (inactive)	> 100 µM (inactive)	> 100 µM (inactive)	> 100 µM (inactive)	> 100 µM (inactive)	> 100 µM (inactive)
CC1=NN(c2ccccc2)C(=O)/C1=C1\SC(c2ccccc2)(c2ccccc2)c2ccccc21	> 100 µM (inactive)	> 100 µM (inactive)	> 100 µM (inactive)	> 100 µM (inactive)	> 100 µM (inactive)	> 100 µM (inactive)	> 100 µM (inactive)	> 100 µM (inactive)	> 100 µM (inactive)	> 100 µM (inactive)	> 100 µM (inactive)	> 100 µM (inactive)		> 100 µM (inactive)	> 100 µM (inactive)	> 100 µM (inactive)	> 100 µM (inactive)	> 100 µM (inactive)	> 100 µM (inactive)
O=C(c1ccccc1)c1ccc2[nH]c(-c3c(Cl)c(Cl)c(Cl)c(Cl)c3C(=O)N/N=C/c3ccccc3)nc2c1	27.7 µM (inactive)	28.2 µM (inactive)	27.5 µM (inactive)	19.6 µM (inactive)	16.3 µM (inactive)	14.9 µM (inactive)	37.7 µM (inactive)	14.7 µM (inactive)	22.4 µM (inactive)	26.4 µM (inactive)	16.4 µM (inactive)	38 µM (inactive)		31.2 µM (inactive)	18.9 µM (inactive)	23.1 µM (inactive)	24.1 µM (inactive)	26.1 µM (inactive)	18.4 µM (inactive)
COC(=O)/C=C1/OC(c2ccccc2)=C(C)C1=O		14.1 µM (inactive)	17.9 µM (inactive)	20 µM (inactive)	1.36 µM (inactive)	14.1 µM (inactive)	27.5 µM (inactive)	20.1 µM (inactive)	13.3 µM (inactive)	1.28 µM (inactive)		19.3 µM (inactive)	2.61 µM (inactive)	11.7 µM (inactive)		16 µM (inactive)		10.2 µM (inactive)	17.9 µM (inactive)
CCOC(=O)c1nc2cc(C(F)(F)F)ccc2nc1Nc1ccc(OC)c(OC)c1	> 100 µM (inactive)	> 100 µM (inactive)	> 100 µM (inactive)	> 100 µM (inactive)	> 100 µM (inactive)	> 100 µM (inactive)	41.7 µM (inactive)	71.3 µM (inactive)	> 100 µM (inactive)	> 100 µM (inactive)		> 100 µM (inactive)	> 100 µM (inactive)	> 100 µM (inactive)	> 100 µM (inactive)	32 µM (inactive)	> 100 µM (inactive)	> 100 µM (inactive)	> 100 µM (inactive)
CCOP(=O)(CC(=O)C1CC1)OCC	> 100 µM (inactive)	> 100 µM (inactive)	> 100 µM (inactive)		> 100 µM (inactive)	> 100 µM (inactive)	> 100 µM (inactive)	> 100 µM (inactive)	> 100 µM (inactive)	> 100 µM (inactive)	> 100 µM (inactive)	> 100 µM (inactive)	> 100 µM (inactive)	> 100 µM (inactive)	> 100 µM (inactive)	> 100 µM (inactive)	> 100 µM (inactive)	> 100 µM (inactive)	> 100 µM (inactive)
CC(C)=NN/C(=N\c1ccc(Cl)cc1)NS(=O)(=O)c1cc(Cl)c(Oc2ccc([N+](=O)[O-])cc2Cl)c(Cl)c1	76.7 µM (inactive)	> 100 µM (inactive)	> 100 µM (inactive)	> 100 µM (inactive)	> 100 µM (inactive)	> 100 µM (inactive)	81.7 µM (inactive)	22.2 µM (inactive)	86.1 µM (inactive)	> 100 µM (inactive)	67.3 µM (inactive)	> 100 µM (inactive)		75.9 µM (inactive)	> 100 µM (inactive)	> 100 µM (inactive)	87.9 µM (inactive)	> 100 µM (inactive)	29.4 µM (inactive)
C#CC(O)/C=C/C(O)CCCC(O)CC#CC(O)C#CCCCCC(O)/C=C/CCCCCC(=O)CCCCCCCCCCCCCC(O)C(O)C#CC(=O)O (configuration not stated)	> 25 µM (inactive)	> 25 µM (inactive)	> 25 µM (inactive)		> 25 µM (inactive)	4.13 µM (inactive)	> 25 µM (inactive)	> 25 µM (inactive)	> 25 µM (inactive)	4.6 µM (inactive)	15.8 µM (inactive)	> 25 µM (inactive)	7.13 µM (inactive)	> 25 µM (inactive)	> 25 µM (inactive)	> 25 µM (inactive)	> 25 µM (inactive)	> 25 µM (inactive)	> 25 µM (inactive)
OCCSCc1cc2c(O)c(c1)Cc1cc(CSCCO)cc(c1O)Cc1cc(CSCCO)cc(c1O)Cc1cc(CSCCO)cc(c1O)C2	4.86 µM (inactive)	4.28 µM (inactive)	2.88 µM (inactive)	1.73 µM (inactive)	3.42 µM (inactive)	3.65 µM (inactive)	8.43 µM (inactive)	6.47 µM (inactive)	5.02 µM (inactive)	3.44 µM (inactive)	3.61 µM (inactive)	4.91 µM (inactive)		3.08 µM (inactive)	4.59 µM (inactive)	5.01 µM (inactive)	3.51 µM (inactive)	3.29 µM (inactive)	15 µM (inactive)
NC(N)=NCc1ccc2c(c1)OCO2	> 100 µM (inactive)	50 µM (inactive)	> 100 µM (inactive)	97.3 µM (inactive)	> 100 µM (inactive)	> 100 µM (inactive)	> 100 µM (inactive)	> 100 µM (inactive)	67 µM (inactive)	> 100 µM (inactive)	> 100 µM (inactive)	> 100 µM (inactive)	> 100 µM (inactive)	> 100 µM (inactive)		> 100 µM (inactive)	> 100 µM (inactive)	50.1 µM (inactive)	> 100 µM (inactive)
CCN(CC)c1ccc2cc(-c3nc(O)c4ccccc4n3)c(=N)oc2c1	> 100 µM (inactive)	> 100 µM (inactive)	> 100 µM (inactive)		> 100 µM (inactive)	> 100 µM (inactive)	> 100 µM (inactive)	> 100 µM (inactive)	> 100 µM (inactive)	> 100 µM (inactive)	> 100 µM (inactive)	> 100 µM (inactive)	> 100 µM (inactive)	> 100 µM (inactive)	> 100 µM (inactive)	> 100 µM (inactive)	> 100 µM (inactive)	> 100 µM (inactive)	> 100 µM (inactive)
N#CSc1ccc(S(N)(=O)=O)cc1	> 100 µM (inactive)	> 100 µM (inactive)	> 100 µM (inactive)	52.2 µM (inactive)	33.2 µM (inactive)	49.7 µM (inactive)	> 100 µM (inactive)	31.8 µM (inactive)	> 100 µM (inactive)	31.3 µM (inactive)	30.3 µM (inactive)	> 100 µM (inactive)		21.6 µM (inactive)	> 100 µM (inactive)	> 100 µM (inactive)	48 µM (inactive)	26.1 µM (inactive)	> 100 µM (inactive)
COc1ccc(CC2c3cc(OC)c(OC)cc3CC[N+]2(C)C)cc1OC (configuration not stated)	> 100 µM (inactive)	> 100 µM (inactive)	> 100 µM (inactive)	> 100 µM (inactive)	> 100 µM (inactive)	> 100 µM (inactive)	> 100 µM (inactive)	> 100 µM (inactive)	> 100 µM (inactive)	> 100 µM (inactive)	> 100 µM (inactive)	> 100 µM (inactive)			> 100 µM (inactive)		> 100 µM (inactive)	> 100 µM (inactive)	> 100 µM (inactive)
Cn1c2ccccc2n2c(=O)c(-c3ccc(Cl)cc3)nnc12	> 100 µM (inactive)	> 100 µM (inactive)	> 100 µM (inactive)		> 100 µM (inactive)	> 100 µM (inactive)	> 100 µM (inactive)	> 100 µM (inactive)	> 100 µM (inactive)	> 100 µM (inactive)	68.4 µM (inactive)	> 100 µM (inactive)	> 100 µM (inactive)	> 100 µM (inactive)	> 100 µM (inactive)			> 100 µM (inactive)	> 100 µM (inactive)
